Test results taken from patent publication US20170029355A1, “LABILE ESTERS OF AGROCHEMICALS FOR CONTROLLED RELEASE AND REDUCTION OF OFF-SITE MOVEMENT” (Monsanto Technology LLC, priority 2011, published 2017).

Tests used:
[1] = In vitro dicamba photo-release from photo-labile dicamba esters, acetonitrile/10% water solvent (Example 27); assay type: physicochemical; details: acetonitrile containing 10% water
Protocol: This Example describes in vitro testing of dicamba photo-release by homogeneous solutions of photo-labile dicamba esters. The esters were dissolved in tetrahydrofuran (THF). Ester concentration was 0.1 mM. 25 ml of the solution was transferred to 22 mm tubes fabricated from graded seal quartz tubing with a 19/22 tapered seal at the top, which was closed with a tapered glass plug and secured with a plastic ring clamp. The solution was entirely below the quartz-to-glass transition, ensuring that the entire volume was exposed to the full spectrum.
The sealed tubes were placed in a Growth Chamber where they were exposed to simulated sunlight for 14 hours per day at 35° C. Dicamba concentrations in the solution were measured during the course of the photolysis.
A sample of the initial solution was reserved in a glass vial away from the light source and analyzed at the conclusion of the study, providing a measurement of the amount of dicamba present without illumination of the photolysis solution (the “dark control”).
This Example is another photolysis of photo-labile dicamba esters, but using acetonitrile containing 10% water by weight as the solvent. The experimental protocol is otherwise the same as in Example 18.

[2] = In vitro photo-release and hydrolytic release of dicamba in an aqueous medium (Example 36); assay type: physicochemical; details: 0.01 mM (0.005 mM for diesters)
Protocol: This Example describes the determination of photo-lability and hydrolytic lability of dicamba esters in an aqueous medium. 1 mM solutions of the esters were prepared in acetonitrile (or […] solutions of dicamba diesters). The solutions were then diluted with deionized water to a concentration of 0.01 mM (or 0.005 mM for diesters). The solutions were then transferred to quartz tubes and amber bottles and held in a growth chamber by the procedure of Example 26. A 14-hour day was generally used at a constant temperature of 35° C. Hydrolytic activity was assessed by measuring the increase in dicamba concentration after day zero in the amber (dark) bottles. […] Photolysis manifested itself as increased conversion in the quartz tubes compared to the dark control.
This Example provides the results of an aqueous lability test following the protocol of Example 35 for several dicamba esters which convert to dicamba primarily by hydrolysis. As shown by the results in the table below, conversion of the dark controls generally equaled or exceeded conversion in the photolysis solutions.

[3] = tested on: velvetleaf; assay: Greenhouse post-emergent control of velvetleaf by emulsifiable concentrates (Example 37); assay type: in vivo; details: Abutilon theophrasti, post-emergence, 504 h, greenhouse, Example 37; for pest or weed control at 140 g/ha: read-out: % Control of velvetleaf, 140 g/ha; for pest or weed control at 280 g/ha: read-out: % Control of velvetleaf, 280 g/ha; for pest or weed control at 420 g/ha: read-out: % Control of velvetleaf, 420 g/ha; for pest or weed control at 560 g/ha: read-out: % Control of velvetleaf, 560 g/ha
Protocol: The efficacy of some photo-labile ester formulations from Example 28 for post-emergent control of velvetleaf was tested in the greenhouse. All formulations were tested at rates of 140, 280, 420, and 560 g dicamba equivalent per hectare rates and compared to the diglycolamine salt of dicamba (CLARITY®) at the same rates and untreated control plants. The velvetleaf plants were 10-15 cm in height at the time of spraying. Percent control was evaluated three weeks after treatment.
The methodology of Example 29 was used to evaluate the efficacy of several esters of dicamba which convert to dicamba by hydrolysis for post-emergent control of velvetleaf as emulsifiable concentrate formulations.

[4] = tested on: Euphorbia species; assay: Field testing for post-emergent activity in the Southern Hemisphere (Example 39); assay type: in vivo; details: 9 as suspension concentrate, other esters as emulsifiable concentrates; for % control, 0.25 lb/ac (0.28 kg/hectare): 0.25 lb dicamba a.e. per acre; for % control, 0.50 lb/ac (0.56 kg/hectare): 0.50 lb dicamba a.e. per acre
Protocol: The primary weeds were Euphorbia species. Ester 9 was tested as a suspension concentrate using the formulation of Example 33 The other esters were tested as emulsifiable concentrates having the formulations shown in the table below. Akzo Nobel SPONTO EC 334 and SPONTO EC 336 along with SURFONIC CO-54 and […] (Huntsman) were used as emulsifiers and Aromatic 200 (A 200; Exxon) was used as the solvent. […] The diglycolamine salt of dicamba (CLARITYTM) was used as a comparator.

[5] = Solubility of the esters (statements of the description); assay type: physicochemical; details: qualitative
[6] = Photolysis / cleavage of the esters to dicamba (statements of the description); assay type: physicochemical; details: qualitative
From the text: The efficacy of the photolabile esters can be assayed in vitro, or in greenhouse or field experiments. A useful in vitro assay for post-emergent activity involves photolysis of a dilute solution of the esters using simulated sunlight. This is conveniently achieved by photolysis of a solution of the ester in an organic solvent which is miscible with water and to which some water has been added. As described in the Examples, photolysis in acetonitrile or tetrahydrofuran containing 10% water by weight is effective. Low concentrations of the ester should be used so that the entire volume is exposed to sunlight. Since the maximum extinction coefficient of the typical esters above 220 nm is in the range of 1000-10,000 M^−1 cm^−1, a concentration of 0.1 mM is effective. Photolysis in a quartz tube exposed to simulated or actual sunlight is a typical protocol.

[7] = tested on: broadleaf weeds; assay: Control of broadleaf weeds by ester concentrates (statements of the description); assay type: in vivo; details: emulsifiable and suspension concentrates; Sesbania macrocarpa, morning glory, velvetleaf, Palmer amaranth, fat hen, sicklepod

SMILES | Conversion to Dicamba, Dark, Day 0 ([2]; amber (dark) bottle) | Conversion to Dicamba, Dark, Day 1 ([2]; amber (dark) bottle) | Conversion to Dicamba, Dark, Day 2 ([2]; amber (dark) bottle) | Conversion to Dicamba, Dark, Day 3 ([2]; amber (dark) bottle) | Conversion to Dicamba, Dark, Day 4 ([2]; amber (dark) bottle) | Conversion to Dicamba, Dark, Day 7 ([2]; amber (dark) bottle) | Conversion to Dicamba, Dark, Day 14 ([2]; amber (dark) bottle) | Conversion to Dicamba, Light, Day 0 ([2]; quartz tube) | Conversion to Dicamba, Light, Day 1 ([2]; quartz tube) | Conversion to Dicamba, Light, Day 2 ([2]; quartz tube) | Conversion to Dicamba, Light, Day 3 ([2]; quartz tube) | Conversion to Dicamba, Light, Day 4 ([2]; quartz tube) | Conversion to Dicamba, Light, Day 7 ([2]; quartz tube) | Conversion to Dicamba, Light, Day 14 ([2]; quartz tube) | pest or weed control at 140 g/ha [3] | pest or weed control at 280 g/ha [3] | pest or weed control at 420 g/ha [3] | pest or weed control at 560 g/ha [3] | solubility, in words [5] | cleavage to form dicamba, in words [6] | further results
COc1c(Cl)ccc(Cl)c1C(=O)Oc1ccccn1 [Ester 14, 2-Hydroxypyridine Ester of Dicamba] | 2% | 68% | 81% | 84% | 86% | 92% | 90% | 2% | 61% | 63% | 64% | 68% | 67% | 71% | 40% | 58.3% | 80.8% | 85% | readily soluble in organic solvents | undergoes efficient cleavage to form dicamba | Dark Control % dicamba ([1]; no illumination): 0%; Conversion to dicamba, 1 day ([1]; simulated sunlight, 1 day): 6%; Conversion to dicamba, 2 days ([1]; simulated sunlight, 2 days): 9%; Conversion to dicamba, 3 days ([1]; simulated sunlight, 3 days): 10%; Conversion to dicamba, 5 days ([1]; simulated sunlight, 5 days): 12%; Conversion to dicamba, 7 days ([1]; simulated sunlight, 7 days): 12%; Conversion to dicamba, 11 days ([1]; simulated sunlight, 11 days): 19%; Conversion to dicamba, 13 days ([1]; simulated sunlight, 13 days): 21%; Conversion to dicamba, 15 days ([1]; simulated sunlight, 15 days): 25%; Conversion to dicamba, 19 days ([1]; simulated sunlight, 19 days): 26%; Conversion to Dicamba, Dark, Day 21 ([2]; amber (dark) bottle, Day 21): 91%; Conversion to Dicamba, Dark, Day 28 ([2]; amber (dark) bottle, Day 28): 97%; Conversion to Dicamba, Light, Day 21 ([2]; quartz tube, Day 21): 71%; Conversion to Dicamba, Light, Day 28 ([2]; quartz tube, Day 28): 75%; % control, 0.25 lb/ac (0.28 kg/hectare) [4]: 47%; % control, 0.50 lb/ac (0.56 kg/hectare) [4]: 56%; control of a number of broadleaf weeds in field testing, in words [7]: proven effective
COc1c(Cl)ccc(Cl)c1C(=O)Oc1nnc(OC(=O)c2c(Cl)ccc(Cl)c2OC)c2ccccc12 [Ester 18, Phthalhydrazide Diester of Dicamba] |  |  |  |  |  |  |  |  |  |  |  |  |  |  |  |  |  |  | highly insoluble | undergo efficient cleavage to form dicamba | 
COc1c(Cl)ccc(Cl)c1C(=O)Oc1ccc(OC(=O)c2c(Cl)ccc(Cl)c2OC)nn1 [Ester 17, Maleic Hydrazide Diester of Dicamba] | 6% | 16% | 26% | 35% | 41% | 49% | 60% | 6% | 18% | 26% | 33% | 36% | 42% | 53% | 23.3% | 41.7% | 75% | 73.3% | readily soluble in organic solvents | undergo efficient cleavage to form dicamba | % control, 0.25 lb/ac (0.28 kg/hectare) [4]: 41%; % control, 0.50 lb/ac (0.56 kg/hectare) [4]: 53%; control of a number of broadleaf weeds in field testing, in words [7]: proven effective
